Measurements: PMC8659031, “Substituted Aryl Benzylamines as Potent and Selective Inhibitors of 17β-Hydroxysteroid Dehydrogenase Type 3” (Molecules, 2021)
Entries after “also recorded” stand apart in the source; their conditions may differ.

How the values were obtained:
17β-HSD3 = target: T1, 17β-HSD3 (Homo sapiens, UniProt P37058); assay: Assay for 17β-HSD3 activity (TLC assay) in 293-EBNA cells stably transfected with 17β-HSD3; assay type: cell-based; details: for inhibition at 10 µM: 293-EBNA; for IC50: 293-EBNA[HSD3] cells, read-out: IC50 (17β-HSD3)
T1 construct: expressed in transfected cells; host or cells: human 293-EBNA cells, stably transfected
T1 sequence (P37058 1-310): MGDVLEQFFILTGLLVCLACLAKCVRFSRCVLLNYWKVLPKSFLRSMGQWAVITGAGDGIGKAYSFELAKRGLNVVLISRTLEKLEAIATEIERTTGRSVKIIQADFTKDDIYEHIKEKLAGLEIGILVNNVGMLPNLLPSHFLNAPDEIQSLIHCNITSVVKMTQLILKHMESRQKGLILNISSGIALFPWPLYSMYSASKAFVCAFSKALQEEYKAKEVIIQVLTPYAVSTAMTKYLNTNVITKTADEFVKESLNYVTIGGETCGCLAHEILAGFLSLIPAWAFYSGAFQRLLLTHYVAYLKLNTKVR
Procedure: Human 293-EBNA cells stably transfected with 17β-HSD3 were plated at 50,000 cells/well in 24 well plates in complete growth medium. After 48 h 2–3 nM [^3H]-androstenedione in assay medium (500 mL DMEM medium with 5 mL 100 × L-glutamine and 5 mL 7.5% sodium bicarbonate solution) was added with or without test compound at 1.5 mL/well (triplicate), and the cells incubated at 37 °C. Two hours later 1 mL medium was removed from each well and placed in a 125 × 16 mm glass test tube containing 25 µL of recovery solution (5000 dpm ^14C-testosterone and 25 µg unlabelled testosterone […], and the tubes vortexed at high speed for 2 × 30 s. After the samples had settled into two phases, they were snap-frozen in a dry ice/methanol bath. The upper organic phase was decanted into 75 × 12 mm tubes and evaporated to dryness under an airstream using a sample concentrator (TECHNE) at 40 °C. The samples were resuspended in ether (8 drops, then a further 3), spotted onto ca 60 F254 20 cm × 20 cm TLC plates and separated using a 4:1 v/v dichloromethane: ethyl acetate mobile phase. After drying the plates, the major spots were marked under a UV lamp, cut out and placed in individual scintillation vials containing 0.5 mL methanol. These were then shaken lightly and allowed to stand for 15 min before adding 10 mL of EcoScintA (scintillation fluid) to each tube along with 0.5 mL assay medium and counted in a scintillation spectrometer (Beckman, High Wycombe, Bucks, UK), using a program for duel [^3H/^14C] isotopes. The number of cells/well was then counted using a Coulter10 counter (Beckman). The inhibitory activity of the test compounds was then assessed by calculating the amount of product formed correcting for crossover between isotope counts, recovery, dilution and non-enzymatic degradation fmol/hr/million cells) with and without inhibitor (% inhibition).

[1] = 10 μM, TLC assay, mean of at least two measurements, typically SD ±5%

In the case of “1-[4-(2-[2-(4-Chloro-phenoxy)-phenylamino]-methyl-phenylamino)-piperidin-1-yl]-ethanone [Compound 21]”, the “% Inhibition at 10 μM (17β-HSD3)” value (17β-HSD3; [1]) is reported as 36%.

`CC(=O)Nc1ccccc1CNc1ccccc1Oc1ccc(OC(F)(F)F)cc1` [Compound 2, N-(2-([2-(4-Trifluoromethoxy-phenoxy)-phenylamino]-methyl)-phenyl)-acetamide] gave an inhibition at 10 µM (17β-HSD3; [1]) of 60 to 70% and a melting point of 98 to 100 °C.

`CC(=O)Nc1ccccc1CNc1cc(F)ccc1Oc1ccc(Cl)cc1` [Compound 3, N-(2-([2-(4-Chloro-phenoxy)-5′-fluoro-phenylamino]-methyl)-phenyl)-acetamide] showed an inhibition at 10 µM (17β-HSD3; [1]) of 60 to 70% and a melting point of 178 to 180 °C.

For `CC(=O)Nc1cc2c(cc1CNc1ccccc1Oc1ccc(Cl)cc1)OCO2` [Compound 4, N-(6-[2-(4-Chloro-phenoxy)-phenylamino]-methyl-benzo[1,3]dioxol-5-yl)-acetamide], the “17β-HSD3 inhibitory activity in words” value (17β-HSD3) was “good activity; also recorded: active”, the inhibition at 10 µM (17β-HSD3; [1]) was 86% and the IC50 (17β-HSD3; TLC assay) was 450 nM. It also gave a melting point of 154 to 156 °C.

Molecule `CC(=O)Nc1ccc(Cl)cc1CNc1ccccc1Oc1ccc(Cl)cc1` [Compound 9, N-(4-Chloro-2-[2-(4-chloro-phenoxy)-phenylamino]-methyl-phenyl)-acetamide] has an inhibition at 10 µM (17β-HSD3; [1]) of 97% and an IC50 (17β-HSD3; TLC assay) of 1900 nM.

In the case of `CC(=O)N(C)c1ccccc1CNc1ccccc1Oc1ccc(Cl)cc1` [Compound 14, N-(2-([2-(4-Chloro-phenoxy)-phenylamino]-methyl)-phenyl)-N-methyl-acetamide], the IC50 (17β-HSD3; TLC assay) is reported as 460 nM.

For `CC(=O)N(C)c1ccccc1CN(C)c1ccccc1Oc1ccc(Cl)cc1` [Compound 15, N-[2-(([2-(4-Chloro-phenoxy)-phenyl]-methyl-amino)-methyl)-phenyl]-N-methyl-acetamide], the “17β-HSD3 inhibitory activity in words” value (17β-HSD3) was “weakly active” and the inhibition at 10 µM (17β-HSD3; [1]) was 60 to 70%.

With `CC(=O)Nc1ccccc1CN(C)c1ccccc1Oc1ccc(Cl)cc1` [Compound 16, N-[2-(([2-(4-Chloro-phenoxy)-phenyl]-methyl-amino)-methyl)-phenyl]-acetamide] the “17β-HSD3 inhibitory activity in words” value (17β-HSD3) was “inactive” and the inhibition at 10 µM (17β-HSD3; [1]) was < 20%.

For `CC(=O)Nc1ccccc1CN(C(C)=O)c1ccccc1Oc1ccc(Cl)cc1` [Compound 17, N-(2-Acetylamino-benzyl)-N-[2-(4-chloro-phenoxy)-phenyl]-acetamide], the “17β-HSD3 inhibitory activity in words” value (17β-HSD3) was “inactive” and the inhibition at 10 µM (17β-HSD3; [1]) was < 20%.

For `CC(=O)Nc1ccc(CNc2ccccc2Oc2ccc(Cl)cc2Cl)cc1` [Compound 19, N-(4-([2-(2,4-Dichloro-phenoxy)-phenylamino]-methyl)-phenyl)-acetamide], the “17β-HSD3 inhibitory activity in words” value (17β-HSD3) was “inactive” and the inhibition at 10 µM (17β-HSD3; [1]) was < 20%.

`CC(=O)N1CCC(Nc2ccccc2CN(C(C)=O)c2ccccc2Oc2ccc(Cl)cc2)CC1` [Compound 22, N-[2-(1-Acetyl-piperidin-4-ylamino)-benzyl]-N-[2-(4-chloro-phenoxy)-phenyl]-acetamide] showed an inhibition at 10 µM (17β-HSD3; [1]) of 55%.

Molecule `CC(=O)N1CCC(C(=O)Nc2cccc(CNc3ccccc3Oc3ccc(Cl)cc3)c2)CC1` [Compound 24, 1-Acetyl-piperidine-4-carboxylic acid (3-[2-(4-chloro-phenoxy)-phenylamino]-methyl-phenyl)-amide] has an inhibition at 10 µM (17β-HSD3; [1]) of 97% and an IC50 (17β-HSD3; TLC assay) of 1100 nM.

`CCNc1ccccc1C(C)Nc1ccccc1Oc1ccc(Cl)cc1` (stereo not shown) [Compound 25, N-(2–1-[2-(4-Chloro-phenoxy)-phenylamino]-ethyl-phenyl)-ethylamine] showed an inhibition at 10 µM (17β-HSD3; [1]) of 20 to 60%.

In the case of `C=CCC(Nc1ccccc1Oc1ccc(Cl)cc1)c1ccccc1NC(C)=O` (stereo not shown) [Compound 26], the inhibition at 10 µM (17β-HSD3; [1]) is reported as 20 to 60% and the IC50 (17β-HSD3; TLC assay) is reported as 520 nM.

With `CC(=O)Nc1ccccc1C(Cc1ccccc1)Nc1ccccc1Oc1ccc(Cl)cc1` (stereo not shown) [Compound 27, N-(2-(1-[2-(4-Chloro-phenoxy)-phenylamino]-2-phenyl-ethyl)-phenyl)-acetamide] the inhibition at 10 µM (17β-HSD3; [1]) was < 20%.

`CCCC(Nc1ccccc1Oc1ccc(Cl)cc1)c1ccccc1NC(C)=O` (stereo not shown) [Compound 28, N-(2-(1-[2-(4-Chloro-phenoxy)-phenylamino]-butyl)-phenyl)-acetamide] showed an IC50 (17β-HSD3; TLC assay) of 370 nM.
